Patent US20070110716A1, “Relationship of a specific metabolite to insulin resistance” (priority 2003, published 2007)

Legend:
Akt = experiment: Insulin-stimulated phosphorylation of Akt in L6 myotubes exposed to high FA; assay type: cell-based, rat; conditions: 24 h exposure to high FA
Experimental: The model predicts that the development of insulin resistance requires FA uptake into muscle mitochondria and subsequent β-oxidation. To test this model, signaling experiments were performed in which mitochondrial FA metabolism was inhibited by carnitine deficiency or etomoxir.

L6 myocytes = experiment: Acylcarnitine and ketone accumulation in L6 myocytes exposed to high FA; assay type: cell-based, rat; conditions: co-administration
Experimental: Cell culture. Early passages of rat L6 myoblasts (ATCC CRL-1458) from the American Tissue Culture Collection (Rockville, Md.) were grown in Dulbecco's Modified Eagle Medium (DMEM) with 10% Fetal Bovine Serum, 4.0 mM glutamine, and […] gentamycin, in a humidified incubator at 37° C., 5% CO2. Myoblasts were grown on 100 mm dishes to 50-60% confluence and then subcultured onto 6 and 24-well collagen-coated plates for experiments. When cells were 70% confluent, they were induced to differentiate into myotubes by changing to low-serum DFM (DMEM, 2% horse-serum, 4.0 mM glutamine, […] gentamycin). […]
Substrate Metabolism. […] Briefly, the production of [^14C]-labeled [^14C]CO2 (complete oxidation) was measured and where appropriate, [^14C]-labeled ASM, a measure of TCA cycle intermediates and acylcarnitine esters and ketones (incomplete oxidation) was measured, using a modified 48-well microtiter plate (Kim, et al. (2002) Am. J. Physiol. Endocrinol. Metab. 282:E1014-El022). […] Radioactivity was determined by scintillation counting. […] Rates of ketone production were determined by treating media and tissue lysates with sodium borodeuteride, thereby producing ketoacids labeled with deuterium. Trimethylsilyated extracts spiked with internal standards were analyzed by GC/MS, permitting determination of βHB and AcAc in a single analysis. […]

| SMILES | Lipid-induced insulin resistance (insulin-stimulated phosphorylation of Akt) (Akt) | Accumulation of lipid metabolites (acylcarnitines, βHB-carnitine, free ketones, C2) (L6 myocytes) |
| --- | --- | --- |
| C[N+](C)(C)CC(O)CC(=O)[O-] (stereo not drawn) [carnitine] | exacerbated lipid-induced insulin resistance in a dose-dependent manner | – |
| CCOC(=O)[C@@]1(CCCCCCOc2ccc(Cl)cc2)CO1 [etomoxir] | at least partly protected | prevented |
